The values below come from US10787430B2, “Hemoglobin modifier compounds and uses thereof” (FronThera U.S. Pharmaceuticals LLC, priority 2016, dated 2020).

≈ marks a conversion by molar mass, not a printed value. Where two headings read alike, the source gives them in different places.

The nature of data set [1]: Solubility in JP1, JP2 and FaSSIF buffers. It is filed as physicochemical. The conditions noted are these: 25 °C, thermodynamic from solid, room temperature. How it is done: Conditions: 1. JP1 buffer (84 mM HCl, 34.22 mM NaCl, pH 1.2); 2. JP2 buffer (50 mM phosphate buffer at pH 6.8); 3. FaSSIF buffer, pH 6.5 (Preparation: In about 0.9 L of purified water dissolve 0.420 g of NaOH (pellets), 4.470 g of NaH2PO4 (dihydrate), 6.186 g of NaCl; Adjust the pH to 6.5 with Sodium hydroxide 1N or Hydrochloric acid 1N, to make up to volume (1 L) with purified water at room temperature; Add 0.224 g of SIF Powder Original to about 0.5 L of pH 6.5 blank buffer and stir until powder is completely dissolved; Let stand for 2 hour. FaSSIF buffer is now ready to use.
Procedures: 1. accurately weighed about 2 mg test compounds and controls in whatman vials, then transferred 450 μL buffer in to the vials; 2. Filter pistons of miniuniprep vials were placed and compressed to the position of the liquid level to allow for contact. Vortexed for 2 minutes; 3. […] Miniunipreps were compressed to prepare the filtrates for injection into HPLC system; 5. Diluted the filtrates with buffer by a factor of 50 fold to make diluents; 6. Determined the test compound concentration of the diluents and filtrates using HPLC-UV.

Data set [2] is described as follows: Microsome stability evaluation in human liver microsomes. The conditions noted are these: read-out: Human microsome, t½. The class given is in vitro ADME. The source says: Example A6: Microsome Stability Evaluation in Human and Rat Liver Microsomes
The target in data set [3] is T1, hemoglobin (20% hct blood) (Homo sapiens, UniProt P68871+P69905).
T1 construct: Normal whole blood was collected from adult healthy donors; from tissue; host or cells: normal human whole blood (red blood cells), adult healthy donors
T1 sequence (P69905 2-142 limits assumed): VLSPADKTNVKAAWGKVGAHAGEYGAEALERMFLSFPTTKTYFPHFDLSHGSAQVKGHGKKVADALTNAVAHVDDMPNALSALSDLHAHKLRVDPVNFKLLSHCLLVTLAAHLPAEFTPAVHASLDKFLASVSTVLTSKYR
T1 sequence (P68871 2-147 limits assumed): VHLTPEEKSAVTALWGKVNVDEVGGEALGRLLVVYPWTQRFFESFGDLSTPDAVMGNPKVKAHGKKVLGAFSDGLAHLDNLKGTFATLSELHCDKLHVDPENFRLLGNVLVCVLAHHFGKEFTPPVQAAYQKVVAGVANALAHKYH
Kind of data set: Dose-dependent whole blood OEC studies. The note with it: 37° C., 1 hr. The class given is cell-based. In outline:
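Human whole blood at 20% hct shaken with 0.2, 0.5 or 1 mM compound at 37° C. for 1 hr; DMSO (1%) vehicle control. Oxygen equilibrium curves gave pO2 and Hb oxygen saturation (sO2), reported as delta p50%.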

Data set [4] can be described thus: Pharmacokinetic study in rats (plasma and red blood cell). It is filed as in vivo. The note with it: male, Sprague-Dawley, rat, oral, 7.2 mg/kg. How it is done:
Rats (Sprague-Dawley, male, 220-280 g) were dosed with GBT-440 (HCl salt) and one of three compounds corresponding to Example 27, 29, and 38. The rats received oral (7.2 mpk) doses of the compound. Rats were fasted overnight before the experiments and provided with food four hours after dosing. The oral dosing formulations was prepared as follows: approximately 10 mg of compound was weighed precisely to an appropriate size of container, to which was added 2 mL of vehicle 0.5% methylcellulose in water and 8 μL 0.5% sodium dodecyl sulfate. The mixture was then transferred into a glass vial, and volume adjusted to appropriate volume with 0.5% methylcellulose to obtain a final concentration of 0.72 mg·mL^−1, and then vortexed and sonicated briefly.
Whole blood sample collection: Blood samples ([…]) were collected at pre-dose, 15, 30 min, 1, 2, 4, 8, 12 and 24 h via jugular vein into tubes and anticoagulated with 3.2% TSC (trisodium citrate). The proportion of anticoagulant and blood was 1:9 (v/v). The sampling time was recorded accordingly. The tubes were gently inverted several times to ensure mixing. Then 10 μL doses of whole blood sample was transferred to a new EP tube and duplicated in wet ice.
Plasma sample collection: The remaining whole blood was processed by centrifugation at 5,500 rpm for 10 min. The supernate was collected. All these whole blood and plasma samples were kept below −20° C. for 1 h prior to analysis.
Plasma sample preparation: An aliquot of 20 μL of sample was transferred to sample treatment tube (1.5 mL EP tube), and then 100 μL ACN (0.5% FA) containing Verapamil, 5 ng·mL^−1 and Glibenclamide, 50 ng·mL^−1 for protein precipitation was added. The mixture was vortexed for 30 min, and then centrifuged at 13000 rpm for 5 min at room temperature. After that, 70 μL of supernatant was transferred to a 96-Well Plate, to which 70 μL of water added and then vortexed for 10 min at room temperature. An aliquot of 10 μL of this mixture was analyzied using LC-MS/MS.
Whole blood sample preparation: An aliquot of 10 μL of sample was transferred to sample treatment tube (1.5 mL EP tube), and then 500 μL ACN (0.5% FA) containing Verapamil, 5 ng·mL^−1 and Glibenclamide, 50 ng·mL^−1 for protein precipitation was added. The mixture was vortexed for 30 min, and then centrifuged at 13000 rpm for 5 min at room temperature. After that, 70 μL of supernatant was transferred to a 96-Well Plate, to which 70 μL of water was added and then vortexed for 10 min at room temperature. An aliquot of 10 μL of this mixture was analyzed using LC-MS/MS.
Plasma and red blood cell concentration-time data were processed by linear regression analysis. All pharmacokinetic parameters were calculated using non-compartment model of Pharsight Phoenix 6.3.
Red blood cell concentrations were calculated according to the method below: Mass balance equation: Cb·VB=Cp·Vp+CBC·VBC Where, Cb=Concentration of whole blood; VB=Volume of whole blood; Cp=Concentration of plasma; Vp=Volume of plasma; CBC=Concentration of blood cell; VBC=Volume of blood cell. VBC=H·VB, where H is the hematocrit number. Vp=(1−H)·VB

Take `[2H]C([2H])(Oc1cccc(O)c1C=O)c1cncnc1-c1ccnn1C(C)C` [Example 38, 2-hydroxy-6-((4-(1-isopropyl-1H-pyrazol-5-yl)pyrimidin-5-yl)methoxy-d2)benzaldehyde]: the solubility at 24 h in data set [1] (aqueous buffer, JP2 buffer (50 mM phosphate) pH 6.8, 24 hr, read-out: JP2 Solubility) was 15.1 µg/mL (≈ 44.4 µM); in data set [1] (simulated gastric fluid, JP1 buffer pH 1.2, 24 hr, read-out: JP1 Solubility) it was 20 µg/mL (≈ 58.6 µM); in data set [1] (FaSSIF buffer pH 6.5, 24 hr, read-out: FaSSIF Solubility), 26.6 µg/mL (≈ 78.1 µM). In addition, the half-life in data set [2] is 38 min; in data set [4] (red blood cells, red blood cell, read-out: T1/2 RBC (converted)) it was 660 min; in data set [4] (plasma, read-out: T1/2 Plasma (converted)) it was 660 min. The “delta p50 0.2 mM” value in data set [3] (0.2 mM compound) is −15.20%. Also, in data set [3] (0.5 mM compound), the “delta p50 0.5 mM” value was −46.80%. Further, the AUC(0-t) in data set [4] (red blood cells, red blood cell (calculated by mass balance from whole blood and plasma), read-out: AUC0-24 h RBC) is 1730 µg·h/mL; in data set [4] (plasma, read-out: AUC0-24 h Plasma), 10.7 µg·h/mL. The Cmax in data set [4] (red blood cells, red blood cell (calculated by mass balance from whole blood and plasma), read-out: Cmax RBC) is 116 µg/mL; in data set [4] (plasma, read-out: Cmax Plasma), 0.753 µg/mL.

For orientation: solubility means the dissolved amount per volume that the medium holds. Usually Cmax stands for the peak of the concentration-time curve.
